Measurements as given in PubChem BioAssay (NCI).
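1) Cells in 96-well plates. 2) Compound, 48 h, 5 concentrations. 3) Linear interpolation between surrounding doses. 4) Unreached endpoint = highest concentration. GI50 marks 50% less growth. The concentration for full growth arrest is given as TGI.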

Assays:
Assay in all cases: NCI anticancer screen, dose series, 48 h
[1] = tested on: M14 melanoma
[2] = tested on: HT29 colon
[3] = tested on: HOP-92 NSCLC
[4] = tested on: SNB-19 CNS
[5] = tested on: TK-10 renal
[6] = tested on: UACC-257 melanoma
[7] = tested on: SK-MEL-2 melanoma
[8] = tested on: KM12 colon
[9] = tested on: HCT-15 colon
[10] = tested on: NCI-H23 lung
[11] = tested on: COLO 205 colon
[12] = tested on: SF-295 CNS
[13] = tested on: K-562 leukemia
[14] = tested on: MALME-3M melanoma
[15] = tested on: NCI/ADR-RES ovarian
[16] = tested on: SK-OV-3 ovarian
[17] = tested on: CCRF-CEM leukemia
[18] = tested on: LOX IMVI melanoma
[19] = tested on: UACC-62 melanoma
[20] = tested on: SK-MEL-28 melanoma
[21] = tested on: SNB-75 CNS
[22] = tested on: T-47D breast
[23] = tested on: SF-539 CNS
[24] = tested on: IGROV1 ovarian
[25] = tested on: U251 CNS
[26] = tested on: HCC-2998 colon
[27] = tested on: MDA-MB-231 breast
[28] = tested on: SR leukemia
[29] = tested on: SK-MEL-5 melanoma
[30] = tested on: OVCAR-3 ovarian
[31] = tested on: HL-60(TB) leukemia
[32] = tested on: A549 NSCLC
[33] = tested on: 786-0 renal
[34] = tested on: ACHN renal
[35] = tested on: NCI-H226 lung
[36] = tested on: MCF7 breast
[37] = tested on: EKVX NSCLC
[38] = tested on: HS 578T breast
[39] = tested on: A498 renal
[40] = tested on: RXF 393 renal
[41] = tested on: NCI-H522 lung
[42] = tested on: OVCAR-8 ovarian
[43] = tested on: HOP-62 NSCLC
[44] = tested on: MDA-MB-435
[45] = tested on: BT-549 breast
[46] = tested on: PC-3 prostate
[47] = tested on: SN12C renal
[48] = tested on: SW-620 colon
[49] = tested on: NCI-H460 lung
[50] = tested on: DU-145 prostate
[51] = tested on: RPMI-8226 leukemia
[52] = tested on: CAKI-1 renal
[53] = tested on: OVCAR-5 ovarian
[54] = tested on: OVCAR-4 ovarian
[55] = tested on: SF-268 CNS
[56] = tested on: HCT-116 colon
[57] = tested on: MOLT-4 leukemia
[58] = tested on: UO-31 renal

CN1CCN(c2ccc(Nc3ncc(Cl)c(NC[C@@H]4CCCO4)n3)cc2)CC1
GI50 [1]: 1130 nM | TGI [1]: 11200 nM | GI50 [2]: 1720 nM | TGI [2]: > 100000 nM | GI50 [3]: 1680 nM | TGI [3]: 6440 nM | GI50 [4]: 3690 nM | TGI [4]: > 100000 nM | GI50 [5]: 1750 nM | TGI [5]: 8390 nM | GI50 [6]: 6460 nM | TGI [6]: 32600 nM | GI50 [7]: 2590 nM | TGI [7]: 7940 nM | GI50 [8]: 362 nM | TGI [8]: 11700 nM | GI50 [9]: 2040 nM | TGI [9]: > 100000 nM | GI50 [10]: 987 nM | TGI [10]: 11600 nM | GI50 [11]: 547 nM | TGI [11]: 2960 nM | GI50 [12]: 1260 nM | TGI [12]: 26300 nM | GI50 [13]: 2940 nM | TGI [13]: > 100000 nM | GI50 [14]: 1490 nM | TGI [14]: 8060 nM | GI50 [15]: 3150 nM | TGI [15]: > 100000 nM | GI50 [16]: 2630 nM | TGI [16]: 63800 nM | GI50 [17]: 466 nM | TGI [17]: 9040 nM | GI50 [18]: 826 nM | TGI [18]: 6830 nM | GI50 [19]: 1950 nM | TGI [19]: 10500 nM | GI50 [20]: 4180 nM | TGI [20]: 21500 nM | GI50 [21]: 1140 nM | TGI [21]: 4720 nM | GI50 [22]: 5800 nM | TGI [22]: 58300 nM | GI50 [23]: 1520 nM | TGI [23]: 4220 nM | GI50 [24]: 1560 nM | TGI [24]: > 100000 nM | GI50 [25]: 2000 nM | TGI [25]: 49100 nM | GI50 [26]: 1650 nM | TGI [26]: 37500 nM | GI50 [27]: 1620 nM | TGI [27]: 8290 nM | GI50 [28]: 513 nM | TGI [28]: 6030 nM | GI50 [29]: 2520 nM | TGI [29]: 13600 nM | GI50 [30]: 2530 nM | TGI [30]: > 100000 nM | GI50 [31]: 1480 nM | TGI [31]: 4760 nM | GI50 [32]: 1050 nM | TGI [32]: 5500 nM | GI50 [33]: 1680 nM | TGI [33]: 15100 nM | GI50 [34]: 973 nM | TGI [34]: > 100000 nM | GI50 [35]: 266 nM | TGI [35]: 6470 nM | GI50 [36]: 683 nM | TGI [36]: 26900 nM | GI50 [37]: 1690 nM | TGI [37]: 5740 nM | GI50 [38]: 1320 nM | TGI [38]: 11200 nM | GI50 [39]: 803 nM | TGI [39]: 3360 nM | GI50 [40]: 746 nM | TGI [40]: 3420 nM | GI50 [41]: 1520 nM | TGI [41]: 10900 nM | GI50 [42]: 4020 nM | TGI [42]: > 100000 nM | GI50 [43]: 705 nM | TGI [43]: 4610 nM | GI50 [44]: 1640 nM | TGI [44]: 15300 nM | GI50 [45]: 2240 nM | TGI [45]: 6940 nM | GI50 [46]: 2240 nM | TGI [46]: > 100000 nM | GI50 [47]: 1130 nM | TGI [47]: > 100000 nM | GI50 [48]: 538 nM | TGI [48]: > 100000 nM | GI50 [49]: 573 nM | TGI [49]: 6550 nM | GI50 [50]: 1960 nM | TGI [50]: > 100000 nM | GI50 [51]: 1480 nM | TGI [51]: 5630 nM | GI50 [52]: 2070 nM | TGI [52]: > 100000 nM | GI50 [53]: 1180 nM | TGI [53]: > 100000 nM | GI50 [54]: 3030 nM | TGI [54]: 81700 nM | GI50 [55]: 1550 nM | TGI [55]: 12900 nM

c1ccc(-c2n(Cc3ccc4ccccc4n3)cc[n+]2Cc2ccc3ccccc3c2)cc1
GI50 [1]: 1250 nM | TGI [1]: 3350 nM | GI50 [2]: 979 nM | TGI [2]: 4590 nM | GI50 [3]: 175 nM | TGI [3]: 1460 nM | GI50 [4]: 865 nM | TGI [4]: 3540 nM | GI50 [5]: 1610 nM | TGI [5]: 4110 nM | GI50 [6]: 557 nM | TGI [6]: 3030 nM | GI50 [7]: 1200 nM | TGI [7]: 3120 nM | GI50 [8]: 823 nM | TGI [8]: 2420 nM | GI50 [9]: 5210 nM | TGI [9]: 17900 nM | GI50 [10]: 731 nM | TGI [10]: 4870 nM | GI50 [11]: 752 nM | TGI [11]: 2260 nM | GI50 [12]: 1730 nM | TGI [12]: 4730 nM | GI50 [13]: 427 nM | TGI [13]: 4360 nM | GI50 [14]: 810 nM | TGI [14]: 2780 nM | GI50 [15]: 19500 nM | TGI [15]: 66800 nM | GI50 [16]: 1800 nM | TGI [16]: 4690 nM | GI50 [17]: 1220 nM | TGI [17]: 6180 nM | GI50 [18]: 955 nM | TGI [18]: 2310 nM | GI50 [19]: 631 nM | TGI [19]: 2060 nM | GI50 [20]: 936 nM | TGI [20]: 2840 nM | GI50 [56]: 1240 nM | TGI [56]: 3370 nM | GI50 [21]: 624 nM | TGI [21]: 3150 nM | GI50 [22]: 378 nM | TGI [22]: 4360 nM | GI50 [23]: 1450 nM | TGI [23]: 4640 nM | GI50 [24]: 783 nM | TGI [24]: 2430 nM | GI50 [25]: 923 nM | TGI [25]: 3250 nM | GI50 [26]: 767 nM | TGI [26]: 2240 nM | GI50 [27]: 1160 nM | TGI [27]: 3320 nM | GI50 [28]: 573 nM | TGI [28]: 3110 nM | GI50 [29]: 538 nM | TGI [29]: 1550 nM | GI50 [57]: 1640 nM | TGI [57]: 4380 nM | GI50 [30]: 766 nM | TGI [30]: 2630 nM | GI50 [31]: 256 nM | TGI [31]: 880 nM | GI50 [32]: 2910 nM | TGI [32]: 12100 nM | GI50 [33]: 2240 nM | TGI [33]: 6120 nM | GI50 [34]: 3350 nM | TGI [34]: 11400 nM | GI50 [35]: 1300 nM | TGI [35]: 7330 nM | GI50 [36]: 1210 nM | TGI [36]: 3430 nM | GI50 [37]: 2330 nM | TGI [37]: 12800 nM | GI50 [38]: 1940 nM | TGI [38]: 6310 nM | GI50 [39]: 1160 nM | TGI [39]: 4790 nM | GI50 [40]: 1340 nM | TGI [40]: 3380 nM | GI50 [41]: 706 nM | TGI [41]: 3420 nM | GI50 [42]: 1630 nM | TGI [42]: 4400 nM | GI50 [43]: 2010 nM | TGI [43]: 6130 nM | GI50 [44]: 799 nM | TGI [44]: 2500 nM | GI50 [45]: 1630 nM | TGI [45]: 3700 nM | GI50 [46]: 1310 nM | TGI [46]: 5510 nM | GI50 [58]: 2930 nM | TGI [58]: 13200 nM | GI50 [47]: 1440 nM | TGI [47]: 4360 nM | GI50 [48]: 1910 nM | TGI [48]: 7400 nM | GI50 [49]: 1790 nM | TGI [49]: 5800 nM | GI50 [50]: 2700 nM | TGI [50]: 11300 nM | GI50 [51]: 288 nM | TGI [51]: 1520 nM | GI50 [52]: 1590 nM | TGI [52]: 3540 nM | GI50 [53]: 2050 nM | TGI [53]: 7270 nM | GI50 [54]: 366 nM | TGI [54]: 6130 nM | GI50 [55]: 1910 nM | TGI [55]: 5500 nM
